Here are results for one compound from patent US6458838B1, “Adrenoleukodystrophy treatments” (Johns Hopkins University, priority 1999, dated 2002).

In assay [1] the test system is human control primary skin fibroblasts. The assay is described as follows: Immunofluorescence peroxisome counting. Conditions: 10 day exposure to 5 mM 4PBA. The assay is classed as cell-based. From the text:
Peroxisomes were made visible with immunofluorescence using a polyclonal antibody to the C-terminal tripeptide (SKL) peroxisome targeting signal 1 (PTS1), which is present in most peroxisomal matrix proteins. […] We counted the peroxisomes after 10 days of treatment (Table 3). Slides were scanned visually and cells categorized as having low, medium or high numbers of peroxisomes. For each cell line, the number of peroxisomes is the mean of three ‘low’, four ‘medium’ and three ‘high’ cells (Table 3). There was no difference between control cells and X-ALD cells in either the number of peroxisomes per cell or in the response to 4-PBA. […] The 2.4-fold increase in the number of peroxisomes per cell was statistically significant (P<0.0000001, two-tailed Student's t-test). Peroxisome numbers obtained with an antibody against a peroxisomal membrane protein (Pex14p) gave similar results (data not shown).
(§1) Immunofluorescence and peroxisome counting. […] The anti-SKL (PTSI) antibody was a gift from S. Gould and the anti-Pex11α antibody was a gift from S. Mihalik. To count peroxisomes, we photographed immunofluorescence-stained cells after focusing on the cell nucleus, and determined the peroxisome number per cell with the aid of a colon counter after projecting the slides to enlarge the image.

The next assay has as its system X-ALD mice. Kind of assay: In vivo efficacy: VLCFA levels in brain and adrenal glands after dietary 4-PBA. Further details: species or system mouse. On the procedure:
To measure the in vivo efficacy of 4-PBA, we supplemented mouse chow and water with 4-PBA.
AMN and Addison-only. […] In vivo delivery of 4-PBA to X-ALD mice. 4-PBA was delivered to X-ALD mice in their regular chow and water. 4-PBA chow was prepared by B'OServ (Holton Industries, Frenchtown, N.J.). […] Brains and adrenal glands from normal LD and X-ALD/4-PBA mice were collected for VLCFA analysis as described.
Biochemical measurements. […] For VLCFA measurements, total lipids were extracted, converted to methyl esters, purified by TLC and subjected to capillary GC analysis as described. Duplicate assays were set up independently and were assayed on different days. C24:0 β-oxidation activity of human and mouse fibroblasts and human lymphoblastoid cells was determined by measuring their capacity to degrade [1-^14C]-C24:0 fatty acid (American Radiolabeled Chemicals, St Louis, Mo.) to water-soluble products as described. Phytanic acid oxidation was measured as described. Cells were incubated with [2,3-^3H]-phytanic acid for 24 hours, and the release of ^3H-H2O to the aqueous medium was determined (activity in pmol/hr per mg protein).

The test system of assay [2] is ALDP. Kind of assay: Semi-quantitative RT-PCR in primary fibroblasts. In kind it is cell-based, human. As to conditions: normal primary fibroblasts, 5 mM 4-PBA for 2 days. How it is done:
(§2) Semi-quantitative RT-PCR was done on the mRNA isolated from these cells (FIG. 1). […] In addition, the expression of acyl-CoA oxidase (AOX), the rate-limiting enzyme in VLCFA β-oxidation, was not affected. Although previous studies have reported that ALDR mRNA was not detectable in fibroblasts by either northern or RT-PCR analyses, those RT-PCR studies used about 66 ng of CDNA; we used about 250 ng of cDNA.
(§3) Semi-quantitative RT-PCR analysis. Total RNA from tissue culture cells (10^6-10^7 cells/sample) was isolated using TRizol Reagent™ (Life Technologies), treated with DNase I (100-200 units in 40 mM HCI, 10 mM NaCl, 6 mM MgCl2, pH 7.3), incubated at 37° C. for 30 min, extracted with phenol/chloroform, and precipitated with isopropanol. cDNA was generated using MMLV reverse transcriptase (RT) (Life Technologies). PCR was done in the linear range of amplification (determined for each primerpair-cDNA combination). For each cDNA sample, a ‘cocktail’ was prepared, containing PCR buffer (Promega), 200 µM of each DNTP, 1.5 mM MgCl2, 250 ng cDNA, 0.25 U of Taq polymerase (Promega) and […]. The ‘cocktail’ was divided into separate tubes containing cDNA specific primers.
(§4) Primers. The PCR primers used are listed below. In the parentheses, h indicates human and m, mouse; this is followed by the gene name, product size and annealing temperature. For primer sequences, F is forward and R is reverse. […]

For the next assay, the system named is PMP70. Kind of assay: Semi-quantitative RT-PCR in primary fibroblasts. In kind it is cell-based, human. As to conditions: X-ALD or normal primary fibroblasts, 5 mM 4-PBA for 2 days. On the procedure:
as §2, §3, §4

A further assay deals with PMP69. Kind of assay: Semi-quantitative RT-PCR in primary fibroblasts. Conditions: X-ALD or normal primary fibroblasts, 5 mM 4-PBA for 2 days. The assay is classed as cell-based, human. On the procedure:
as §2, §3, §4

The test system of assay [3] is ALDP. The assay is described as follows: ALDP stabilization, cytological immunofluorescence with anti-ALDP antibody. In kind it is cell-based. Conditions: human X-ALD primary fibroblasts with destabilizing missense mutations (A626T, R660W); 5 mM 4-PBA up to 10 days; data not shown.
Excerpt: as §1

Structures are written as SMILES. Values joined by “and” are separate entries in the source; they are usually repeats but may differ in a detail not shown here. Equal entries are not always repeated. “Also recorded” adds a separate entry of the source.

In the case of `O=C(O)CCCc1ccccc1` [4-PBA, 4-Phenyl butyrate], the “peroxisome number, Increase” value in assay [1] (Mean of four normal cell lines) is given as 2.3 fold; in assay [1] (cell line Normal GM 5565), 2.3 fold; in assay [1] (cell line Normal GM 5659C) it was 2.3 fold; in assay [1] (cell line Normal GM 5756), 2.3 fold; in assay [1] (cell line Normal GM 5757A) it was 2.4 fold. Further, the “peroxisome number, Treated” value in assay [1] (Mean of four normal cell lines) came to 939 ± 78 peroxisomes per cell; in assay [1] (cell line Normal GM 5565), 961 ± 383 peroxisomes per cell; in assay [1] (cell line Normal GM 5659C), 907 ± 270 peroxisomes per cell; in assay [1] (cell line Normal GM 5756), 852 ± 271 peroxisomes per cell; in assay [1] (cell line Normal GM 5757A) it was 1035 ± 338 peroxisomes per cell. Besides, the “adrenal gland VLCFA (C24:0 and C26:0) levels” value with X-ALD mice (dietary 4-PBA for 4 weeks) was “substantial reduction”. In addition, the “brain VLCFA (C24:0 and C26:0) levels” value in the assay with X-ALD mice (dietary 4-PBA for 4 weeks) is recorded as “substantial reduction”. Besides, the “correction of brain C24:0 level” value with X-ALD mice (dietary 4-PBA for 6 weeks) is reported as “complete correction; also recorded: complete normalization”. Further, the “correction of brain C26:0 level” value in the assay on X-ALD mice (dietary 4-PBA for 6 weeks) was 78% and 80%. The “ALDP expression (mRNA)” value in the assay on ALDP [2] was “little, if any, effect”. Also, in the assay on PMP70, the PMP70 expression level entry is “little, if any, effect”. Further, the PMP69 expression level result in the assay with PMP69 is recorded as “little, if any, effect”. Moreover, in the assay on ALDP [3], the “detectable ALDP after treatment” value is “did not result in detectable levels of ALDP”.
